Data from article PMC8560925, “Inhibition of Clostridium difficile TcdA and TcdB toxins with transition state analogues” (Nature Communications, 2021).
“And” between values parts separate entries of the source, which are not always exact repeats. Equal entries are not always repeated. Structures can show the parent of a compound that is named as a salt. Where two headings read alike, the source gives them in different places.

Key:
TcdB-GTD [1] = biological target: T1, TcdB-GTD (Clostridioides difficile, UniProt P18177); assay: biochemical; assay type: biochemical, Clostridium difficile
T1 construct: C-terminal His-6 tagged TcdB-GTD (amino acids 1-546); His6 (C); made in house; host or cells: Escherichia coli One Shot BL21 Star (DE3)
T1 sequence (P18177 1-546 limits assumed): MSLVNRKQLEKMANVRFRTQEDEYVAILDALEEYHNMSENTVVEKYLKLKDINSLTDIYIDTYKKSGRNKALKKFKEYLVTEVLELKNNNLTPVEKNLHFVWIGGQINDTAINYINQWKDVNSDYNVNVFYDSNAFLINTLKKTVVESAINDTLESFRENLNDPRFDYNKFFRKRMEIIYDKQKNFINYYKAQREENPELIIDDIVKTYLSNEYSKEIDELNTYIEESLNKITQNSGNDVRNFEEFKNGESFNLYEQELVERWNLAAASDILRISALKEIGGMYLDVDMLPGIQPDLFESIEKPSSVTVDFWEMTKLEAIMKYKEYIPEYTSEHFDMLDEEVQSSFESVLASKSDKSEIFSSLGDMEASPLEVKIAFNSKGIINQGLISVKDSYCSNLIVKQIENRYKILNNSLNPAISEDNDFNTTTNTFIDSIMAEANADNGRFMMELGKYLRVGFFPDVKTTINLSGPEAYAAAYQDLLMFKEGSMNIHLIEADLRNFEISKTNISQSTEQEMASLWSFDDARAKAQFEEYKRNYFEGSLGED

TcdB-GTD [2] = biological target: T1, TcdB-GTD; assay: biochemical; design: species or system Clostridium difficile
Gaucher disease patients = system: Gaucher disease patients; design: method as in NCTs: 00433147; 00446550; 00813865; 00875160; conditions: ref NCTs: 00433147, 00446550, 00813865, 00875160, cited from earlier work
[3] = system: Rac1 glucosylation by TcdB in IMR90 cells; assay: Western blot analysis of Rac1 glucosylation in IMR90 cells, TcdB; assay type: cell-based, human; conditions: 12.5–100 µM iminosugar, 0.1 nM TcdB, 6 h
Procedure: (§1) IMR90 cells were grown in EMEM with 10% FBS in 24-well plates inoculated at 50,000 cells/well. […] Next, TcdA (1 nM final) or TcdB (0.1 nM final) was added to each well and cells were incubated at 37 °C, 5% CO2 for 6 h. The cells were lysed with mammalian cell lysis buffer (Abcam) according to manufacturer’s instructions. Cell lysates (2 µg) were heated at 95 °C in XT-loading dye (Bio-rad) before being loaded on an SDS polyacrylamide gel. Following electrophoresis, samples were transferred to PVDF membrane using an iblot2 device (ThermoFisher), blocked with 1% milk in PBS 0.1% Tween 20 for 1 h at room temperature and probed with a 1/4000 dilution of anti-Rac1 (Mab102, Thermo Fisher) and 1/8000 of anti-GAPDH antibody (Abcam) for 1 h at room temperature. Following incubation with the primary antibody, the membrane was washed 3 times with PBS with 0.1% Tween20 and incubated with a 1/40,000 dilution of secondary antibody for 1 h. Following incubation with the secondary antibody, the membrane was washed 3 times in PBS 0.1% tween 20 before a final wash in PBS. […]

cell lines = assay: Cell toxicity of the iminosugars in the cell lines used; assay type: cell-based; conditions: high treatment concentrations
[4] = system: TcdA-induced cell rounding of Vero cells; assay: cells; assay type: cell-based; conditions: Chlorocebus sabaeus, 2 h, read-out: Calculated IC50 cell rounding
[5] = system: Rac1 glucosylation by TcdA in IMR90 cells; assay: Western blot analysis of Rac1 glucosylation in IMR90 cells, TcdA; assay type: cell-based, human; conditions: 12.5–100 µM iminosugar, 1 nM TcdA, 6 h
Procedure: as §1

[6] = biological target: T2, TcdB-GTD in the presence of UDP (Clostridioides difficile, UniProt P18177); assay: biochemical; assay type: binding, Clostridium difficile; conditions: for Kd: ITC, 1 mM UDP
T2 construct: C-terminal His-6 tagged TcdB-GTD (amino acids 1-546); His6 (C); made in house; host or cells: Escherichia coli One Shot BL21 Star (DE3)
T2 sequence (P18177 1-546 limits assumed): as above

[7] = system: TcdA-induced cell rounding of IMR90 cells; assay type: cell-based, human
[8] = system: TcdB-induced cell rounding of IMR90 cells; assay type: cell-based, human
TcdB-GTD [9] = biological target: T1, TcdB-GTD; assay type: binding, Clostridium difficile
[10] = system: TcdB-induced cell rounding of Vero cells; assay: cells; assay type: cell-based; conditions: Chlorocebus sabaeus, 1.5 h, read-out: Calculated IC50 cell rounding
[11] = design: method as in Khanna et al, FEBS journal, 2010, vol 277, p 1618; conditions: after administration; ref Khanna et al, FEBS journal, 2010, vol 277, p 1618; cited from earlier work
TcdA-GTD = biological target: T3, TcdA-GTD (Clostridioides difficile, UniProt P16154); assay: biochemical; assay type: biochemical, Clostridium difficile
T3 construct: TcdA-GTD (amino acids 1–542); His6 (C); made in house; host or cells: E. coli One shot BL21 Star (DE3)
T3 sequence (P16154 1-542): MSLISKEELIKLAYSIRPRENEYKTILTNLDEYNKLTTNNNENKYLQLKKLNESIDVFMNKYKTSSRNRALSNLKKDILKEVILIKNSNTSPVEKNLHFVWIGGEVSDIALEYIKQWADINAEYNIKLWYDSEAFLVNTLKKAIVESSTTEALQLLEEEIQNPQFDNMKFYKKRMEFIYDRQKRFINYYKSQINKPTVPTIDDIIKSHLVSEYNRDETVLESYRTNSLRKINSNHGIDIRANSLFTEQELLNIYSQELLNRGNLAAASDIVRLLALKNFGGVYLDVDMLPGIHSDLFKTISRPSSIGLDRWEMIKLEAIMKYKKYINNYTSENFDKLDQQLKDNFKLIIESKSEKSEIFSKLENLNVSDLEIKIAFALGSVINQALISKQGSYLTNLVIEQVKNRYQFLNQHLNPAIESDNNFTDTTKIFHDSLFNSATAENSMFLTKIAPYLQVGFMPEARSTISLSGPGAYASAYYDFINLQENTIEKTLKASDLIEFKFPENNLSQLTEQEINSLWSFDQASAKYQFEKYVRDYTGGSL

[12] = system: TcdA-induced apoptosis of HT-29 cells; assay type: cell-based
TcdB-GTD [13] = conditions: cited from earlier work
C. sordelli lethal toxin = conditions: cited from earlier work
[14] = Ki TcdB-GTD glucosyltransferase activity
[15] = Ki TcdB-GTD glucohydrolase activity
[16] = Ki TcdB-GTD glucosyltransferase activity, fixed concentration of UDP at 2 x Ki UDP
[17] = Ki TcdA-GTD glucosyltransferase activity
[18] = Ki TcdA-GTD glucosyltransferase activity, fixed concentration of UDP at 2 x Ki UDP

## O=C1O[C@H](CO)[C@@H](O)[C@H](O)[C@H]1O [Gluconolactone, D-gluconon-1,5-lactone]
TcdB-GTD [1]; [14]
  Ki: 440 µM
TcdB-GTD [2]; [15]
  Ki: 414 µM

## OC[C@H]1CNC[C@@H](O)[C@@H]1O [Isofagomine]
Gaucher disease patients; 225 mg/day oral, Gaucher patients
  Tolerability of oral doses: well tolerated
Gaucher disease patients; majority of patients
  Reduction in Gaucher disease symptoms: did not show a significant reduction
[3]
  Unglucosylated Rac1 (Mab102) versus total Rac1: dose-dependent reappearance of unglucosylated Rac1
Cell lines
  Cell toxicity: no cell toxicity
[4]
  IC50: 5.5 ± 1.5 µM
[5]
  Unglucosylated Rac1 (Mab102) versus total Rac1: dose-dependent reappearance of unglucosylated Rac1
[6]
  ΔH: -10.3 ± 0.1 kcal/mol
  −TΔS: 0.5 ± 0.2 kcal/mol
  Kd: 0.067 µM and 0.0669 µM
[7]
  Effect on toxin-induced cell rounding: prevented
TcdB-GTD [1]
  Mode of inhibition versus UDP-glucose: uncompetitive
  fold improvement of inhibitory affinity in the presence of UDP: 2.4 fold
TcdB-GTD [1]; [14]
  Ki: 1.4 ± 0.1 µM
TcdB-GTD [1]; [16]
  Ki: 0.29 ± 0.06 µM
TcdB-GTD [1]; read-out: % enzyme activity
  remaining activity at 0.015 µM: 99.7%
  remaining activity at 0.061 µM: 100%
  remaining activity at 0.24 µM: 88.2%
  remaining activity at 0.48 µM: 95.9%
  remaining activity at 1.95 µM: 72%
  remaining activity at 3.9 µM: 37.8%
  remaining activity at 3.906 µM: 15.8%
  remaining activity at 7.81 µM: 19.7%
  remaining activity at 15.62 µM: 8.07%
  remaining activity at […]: 87.8% and 80.5% and 43.4%
[8]
  Effect on toxin-induced cell rounding: prevented
TcdB-GTD [9]
  Binding to TcdB-GTD alone (ITC): no significant binding
[10]
  IC50: 8.3 ± 3.6 µM
TcdB-GTD [2]; [15]
  Ki: 4.8 ± 0.2 µM
[11]
  Time to maximal levels in plasma, liver, spleen and brain: ≤ 1 h
TcdA-GTD
  Mode of inhibition versus UDP-glucose: uncompetitive inhibition
  fold improvement of inhibition constant for TcdA-GTD relative to TcdB-GTD: 5.8 fold
  fold improvement of inhibition constant in the presence of UDP: 15 fold
TcdA-GTD; [17]
  Ki: 0.24 ± 0.01 µM
TcdA-GTD; [18]
  Ki: 0.016 ± 0.002 µM
[12]
  Effect on TcdA-induced apoptosis (Annexin V): prevented apoptosis

## OC[C@@H]1[C@@H](O)[C@H](O)[C@H]2[C@@H](O)CCN21 [Australine HCl, australine hydrochloride]
TcdB-GTD [1]; read-out: % enzyme activity
  remaining activity at 500 µM: 73.4%
  remaining activity at 1000 µM: 45.1%
  remaining activity at 2000 µM: 21.8%
  remaining activity at 4000 µM: 0%
  remaining activity at […]: 100%
TcdB-GTD [1]; read-out: Ki TcdB-GTD glucosyltransferase activity
  Ki: 1570 ± 430 µM
TcdB-GTD [2]; read-out: Ki TcdB-GTD GH activity, no inhibition
  Ki: > 10000 µM
TcdB-GTD [2]; read-out: Ki TcdB-GTD glucohydrolase activity
  Ki: > 10000 µM

## OC[C@H]1OC(O)[C@H](O)[C@@H](O)[C@@H]1O (stereo partly shown) [Glucose]
TcdB-GTD [13]; ref 42 (numbering of the author response)
  Inhibition of TcdB-GTD: no significant inhibition
TcdB-GTD [1]
  Inhibition: no significant inhibition

## O[C@H]1[C@H]2[C@H](O)CCCN2C[C@H]1O [Swainsonine]
TcdB-GTD [1]; Ki TcdB-GTD GT activity
  Ki: > 10000 µM
TcdB-GTD [1]; [14]
  Ki: > 10000 µM
TcdB-GTD [2]; Ki TcdB-GTD GH activity
  Ki: > 10000 µM
TcdB-GTD [2]; [15]
  Ki: > 10000 µM

## O.O=c1ccn([C@@H]2O[C@H](COP(=O)([O-])OP(=O)([O-])O)[C@@H](O)[C@H]2O)c(=O)[nH]1.[Na+].[Na+] [UDP, Uridine 5’diphosphate disodium salt hydrate]
TcdB-GTD [1]
  Mode of inhibition versus UDP-glucose: competitive inhibition
TcdB-GTD [1]; read-out: % enzyme activity
  remaining activity at 4.84 µM: 86.1%
  remaining activity at 19.37 µM: 65.3%
  remaining activity at 78 µM: 19.7%
  remaining activity at […]: 99.1%
TcdB-GTD [9]
  ΔH: -14.3 ± 3.9 kcal/mol
  −TΔS: 8.2 ± 3.8 kcal/mol

## OC[C@H]1NC[C@H](O)[C@@H](O)[C@@H]1O [Deoxynojirimycin]
TcdB-GTD [1]
  Inhibition of TcdB-GTD GT activity: did not inhibit
TcdB-GTD [1]; [14]
  Ki: > 10000 µM
TcdB-GTD [2]
  Inhibition of TcdB-GTD GH activity: did not inhibit
TcdB-GTD [2]; [15]
  Ki: > 10000 µM

## OC[C@H]1CNC(O)[C@@H](O)[C@@H]1O (stereo partly shown) [Noeuromycin]
[3]
  Unglucosylated Rac1 (Mab102) versus total Rac1: dose-dependent reappearance of unglucosylated Rac1
Cell lines
  Cell toxicity: no cell toxicity
[4]
  IC50: 9.6 ± 3.3 µM
[5]
  Unglucosylated Rac1 (Mab102) versus total Rac1: dose-dependent reappearance of unglucosylated Rac1
[6]
  ΔH: -5.2 ± 0.1 kcal/mol
  −TΔS: 4.2 ± 0.3 kcal/mol
  Kd: 0.18 µM
[7]
  Effect on toxin-induced cell rounding: prevented
TcdB-GTD [1]
  Mode of inhibition versus UDP-glucose: uncompetitive
  fold improvement of inhibitory affinity in the presence of UDP: 4.8 fold
  fold less potent than isofagomine: 7.6 fold
TcdB-GTD [1]; [14]
  Ki: 10.6 ± 1 µM
TcdB-GTD [1]; [16]
  Ki: 4.4 ± 0.1 µM
[8]
  Effect on toxin-induced cell rounding: prevented
TcdB-GTD [9]
  Binding to TcdB-GTD alone (ITC): no significant binding
[10]
  IC50: 13.6 ± 5.6 µM
TcdB-GTD [2]; [15]
  Ki: 12 ± 1.6 µM
TcdA-GTD
  fold improvement of inhibition constant for TcdA-GTD relative to TcdB-GTD: 2.3 fold
  fold improvement of inhibition constant in the presence of UDP: 23 fold
TcdA-GTD; Ki TcdA-GTD GT activity, fixed concentration of UDP at 2 x Ki UDP
  Ki: 0.21 ± 0.05 µM
TcdA-GTD; [17]
  Ki: 4.7 ± 0.2 µM
TcdA-GTD; [18]
  Ki: 0.214 ± 0.055 µM
[12]
  Effect on TcdA-induced apoptosis (Annexin V): prevented apoptosis

## O[C@H]1[C@H](O)[C@@H](O)CN2CC[C@H](O)[C@H]12 [Castanospermine]
C. sordelli lethal toxin
  IC50: ~100 µM
TcdB-GTD [13]
  IC50: ~400 µM
TcdB-GTD [1]; [14]
  Ki: 680 ± 20 µM
TcdB-GTD [1]; read-out: % enzyme activity
  remaining activity at 1000 µM: 25.9%
  remaining activity at 4000 µM: 0%
TcdB-GTD [2]; [15]
  Ki: 3400 ± 200 µM
